# US20080249091A1, “Indoles Useful in the Treatment of Inflammation” (priority 2005, published 2008)
# Molecular target: T1, mPGES-1 (Homo sapiens, UniProt O14684)
# T1 construct: made in house; host or cells: E. coli (membrane fraction)
# T1 sequence (O14684 1-152): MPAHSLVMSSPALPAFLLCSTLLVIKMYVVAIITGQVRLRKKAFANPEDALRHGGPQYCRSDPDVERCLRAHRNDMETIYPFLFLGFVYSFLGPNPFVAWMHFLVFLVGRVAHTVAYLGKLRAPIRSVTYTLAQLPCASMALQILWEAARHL
# Assay: mPGES-1 assay: conversion of PGH2 to PGE2, HPLC analysis
# Assay type: biochemical
# Details: mPGES-1 expressed in E. coli; 25 min preincubation with inhibitor at room temperature; PGH2 substrate 60 seconds; read-out: IC50 values (inhibition of mPGES-1)
# Protocol: In the assay mPGES-1 catalyses the reaction where the substrate PGH2 is converted to PGE2. mPGES-1 is expressed in E. coli and the membrane fraction is dissolved in 20 mM NaPi-buffer pH 8.0 and stored at −80° C. In the assay mPGES-1 is dissolved in 0.1M KPi-buffer pH 7.35 with 2.5 mM glutathione. The stop solution consists of H2O/MeCN (7/3), containing FeCl2 (25 mM) and HCl (0.15 M). The assay is performed at room temperature in 96-well plates. Analysis of the amount of PGE2 is performed with reversed phase HPLC (Waters 2795 equipped with a 3.9×150 mm C18 column). The mobile phase consists of H2O/MeCN (7/3), containing TFA (0.056%), and absorbance is measured at 195 nm with a Waters 2487 UV-detector.
# The following is added chronologically to each well: • 1. 100 μL mPGES-1 in KPi-buffer with glutathione. Total protein concentration: 0.02 mg/mL. • 2. 1 μL inhibitor in DMSO. Incubation of the plate at room temperature for 25 minutes. • 3. 4 μL of a 0.25 mM PGH2 solution. Incubation of the plate at room temperature for 60 seconds. • 4. 100 μL stop solution. • 180 μL per sample is analyzed with HPLC.
row,SMILES,IC50 [nM]
1,"CC(C)Oc1ccc(-n2c(C(=O)O)cc3cc(Oc4cccc(OC(C)C)c4)ccc32)cc1 [Example 1, 5-(3-Isopropoxyphenoxy)-1-(4-isopropoxyphenyl)indole-2-carboxylic acid]",430
2,"CC(C)Oc1ccc(-n2c(C(=O)O)cc3cc(Oc4ccc(Cl)cc4)ccc32)cc1 [Example 10, 5-(4-Chlorophenoxy)-1-(4-isopropoxyphenyl)indole-2-carboxylic acid]",240
3,"CC(C)Oc1ccc(-n2c(C(=O)O)cc3cc(Oc4cnc5ccccc5c4)ccc32)cc1 [Example 13, 1-(4-Isopropoxyphenyl)-5-(quinolin-3-yloxy)indole-2-carboxylic acid]",3700

# Results, then the molecule that gave them:
row,IC50 [nM],SMILES
1,75,"O=C(O)c1cc2cc(Oc3ccc(C4CCCCC4)cc3)ccc2n1-c1ccc(OC2CC2)cc1 [Example 21, 5-(4-Cyclohexylphenoxy)-1-(4-cyclopropoxyphenyl)indole-2-carboxylic acid]"
2,610,"O=C(c1ccc(Cl)cc1)c1ccc2c(c1)c(Cl)c(C(=O)O)n2-c1ccc(OC2CCCC2)cc1 [Example 40, 3-Chloro-5-(4-chlorobenzoyl)-1-(4-cyclopentyloxyphenyl)indole-2-carboxylic acid]"
